# Source: US20250228239A1, “MOLECULES HAVING PESTICIDAL UTILITY, AND INTERMEDIATES, COMPOSITIONS, AND PROCESSES, RELATED THERETO” (priority 2024, published 2025)
# Where two headings read alike, the source gives them in different places.
# Key:
# Type in all cases: in vivo
# [1] = tested on: Cabbage Looper (Trichoplusia ni, TRIPNI); experiment: Bioassays on Cabbage Looper (CL), 128-well diet tray assay; conditions: Trichoplusia ni
# Method in brief: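 Percent mortality, averaged across eight replicate wells, after second-instar larvae (1–5 per well) fed for five to seven days on diet dosed at 50 μg/cm^2. Compound was applied in acetone-water 90:10 and dried; trays kept vented at 25° C under 14:10 photoperiod.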
# [2] = tested on: Beet Armyworm (Spodoptera exigua, LAPHEG); experiment: Bioassays on Beet Armyworm (BAW), 128-well diet tray assay; conditions: Spodoptera exigua
# Method in brief: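 Test molecule was dissolved in 90:10 acetone-water and applied at 50 μg/cm^2 onto artificial diet in eight wells, then dried. Second instar larvae, one to five per well, were added, and trays were kept vented at 25° C. with a 14:10 photoperiod for five to seven days before mortality was recorded.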
# [3] = tested on: Yellow Fever Mosquito (Aedes aegypti, AEDSAE); conditions: for YFM rating: Table ABC / ABC-DP rating
# Method in brief: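 Rating-scale grades reflect larval mortality scored per well after 3 days at room temperature under non-evaporative lids. Larvae (~1 day old, hatched overnight in liver-powder water) were added to six daughter plates per compound, prepared from a 4000 ppm DMSO stock diluted in 90:10 water/acetone.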
# [4] = Table ABC: Biological Results, species CL, read-out: CL
# [5] = Table ABC: Biological Results, species BAW, read-out: BAW
# [6] = Table ABC: Biological Results, species YFM
# [7] = Cabbage Looper, Table ABC / ABC-DP rating, read-out: CL rating
# [8] = Beet Armyworm, Table ABC / ABC-DP rating, read-out: BAW rating
# [9] = Cabbage Looper, rating class, read-out: CL
# [10] = Beet Armyworm, rating class, read-out: BAW
# [11] = Yellow Fever Mosquito, rating class
structure (smiles),measurement,setting,value
"O=C(Nc1ccc(F)cc1F)c1cc(NC(=O)[C@H]2[C@H](c3ccc(F)c(Cl)c3F)C2(Cl)Cl)ccc1Cl (relative stereo) [F1034, trans-2-Chloro-5-(2,2-dichloro-3-(3-chloro-2,4-difluorophenyl)cyclopropane-1-carboxamido)-N-(2,4-difluorophenyl)benzamide]",pest or weed control at 50 µg/cm2,[1]; [4],50 to 100%
same,pest or weed control at 50 µg/cm2,[2]; [5],50 to 100%
same,YFM,[3]; [6],A (80–100)
"O=C(NN=Cc1ccccn1)c1cc(NC(=O)[C@H]2[C@H](c3cc(Cl)cc(Cl)c3)C2(Cl)Cl)ccc1Cl (relative stereo) [F3002, trans-2,2-Dichloro-N-(4-chloro-3-(2-(pyridin-2-ylmethylene)hydrazine-1-carbonyl)phenyl)-3-(3,5-dichlorophenyl)cyclopropane-1-carboxamide]",mortality at 50 µg/cm2,"[1]; 168 h, second instar larvae, 50 μg/cm^2 of test molecule on artificial diet, 25° C., five to seven days, average of eight wells, read-out: CL % Control (or Mortality) rating",50 to 100%
same,pest or weed control at 50 µg/cm2,[1]; [7],50 to 100%
same,mortality at 50 µg/cm2,"[2]; 168 h, second instar larvae, 50 μg/cm^2 of test molecule on artificial diet, 25° C., five to seven days, average of eight wells, read-out: BAW % Control (or Mortality) rating",50 to 100%
same,pest or weed control at 50 µg/cm2,[2]; [8],50 to 100%
same,YFM rating,[3]; Yellow Fever Mosquito,A (80–100)
same,YFM % Control (or Mortality) rating,"[3]; about 1 day-old larvae, 4000 ppm master solution diluted with 90:10 water/acetone, 15 μL per well plus 220 μL larval mixture, 3 days, mortality",A (80–100)
"O=C(NCC(F)(F)F)c1cc(NC(=O)[C@H]2[C@H](c3ccc(F)c(Cl)c3)C2(Cl)Cl)cc(C(F)(F)F)c1Cl (relative stereo) [F2054, trans-2-Chloro-5-(2,2-dichloro-3-(3-chloro-4-fluorophenyl)cyclopropane-1-carboxamido)-N-(2,2,2-trifluoroethyl)-3-(trifluoromethyl)benzamide]",pest or weed control at 50 µg/cm2,[1]; [7],50 to 100%
same,pest or weed control at 50 µg/cm2,[2]; [8],50 to 100%
same,YFM rating,[3]; Yellow Fever Mosquito,A (80–100)
"O=C(NNc1ncccc1Cl)c1cc(NC(=O)[C@H]2[C@H](c3cc(Cl)cc(Cl)c3)C2(Cl)Cl)ccc1Cl (relative stereo) [F2505, trans-2,2-Dichloro-N-(4-chloro-3-(2-(3-chloropyridin-2-yl)hydrazine-1-carbonyl)phenyl)-3-(3,5-dichlorophenyl)cyclopropane-1-carboxamide]",pest or weed control at 50 µg/cm2,[1]; [7],50 to 100%
same,pest or weed control at 50 µg/cm2,[2]; [8],50 to 100%
same,YFM rating,[3]; Yellow Fever Mosquito,A (80–100)
"O=C(Nc1ccc(F)c(NC(=O)C(F)F)c1F)c1cc(NC(=O)[C@H]2[C@H](c3cccc(Cl)c3)C2(Cl)Cl)ccc1Cl (relative stereo) [F1601, trans-2-Chloro-5-(2,2-dichloro-3-(3-chlorophenyl)cyclopropane-1-carboxamido)-N-(3-(2,2-difluoroacetamido)-2,4-difluorophenyl)benzamide]",pest or weed control at 50 µg/cm2,[1]; [9],50 to 100%
same,pest or weed control at 50 µg/cm2,[2]; [10],50 to 100%
same,YFM,[3]; [11],A (80–100)
"Cc1cc(NC(=O)[C@H]2[C@H](c3ccc(F)c(Cl)c3)C2(Cl)Cl)cc(C(=O)Nc2ccc(F)cc2F)c1F (relative stereo) [F1137, trans-5-(2,2-Dichloro-3-(3-chloro-4-fluorophenyl)cyclopropane-1-carboxamido)-N-(2,4-difluorophenyl)-2-fluoro-3-methylbenzamide]",pest or weed control at 50 µg/cm2,[1]; [4],50 to 100%
same,pest or weed control at 50 µg/cm2,[2]; [5],50 to 100%
same,YFM,[3]; [6],A (80–100)
"C#CCN(C(=O)c1cc(NC(=O)[C@H]2[C@H](c3ccc(F)c(C(F)(F)F)c3)C2(Cl)Cl)ccc1Cl)c1ccc(F)c(N)c1F (relative stereo) [F1114, trans-N-(3-Amino-2,4-difluorophenyl)-2-chloro-5-(2,2-dichloro-3-(4-fluoro-3-(trifluoromethyl)phenyl)cyclopropane-1-carboxamido)-N-(prop-2-yn-1-yl)benzamide]",pest or weed control at 50 µg/cm2,[1]; [4],50 to 100%
same,pest or weed control at 50 µg/cm2,[2]; [5],50 to 100%
same,YFM,[3]; [6],A (80–100)
CC(F)(F)CNC(=O)c1cc(NC(=O)C2C(c3cc(Cl)cc(Cl)c3)C2(Cl)Cl)cc(F)c1Cl (stereo not drawn) [F2087],pest or weed control at 50 µg/cm2,[1]; [7],50 to 100%
same,pest or weed control at 50 µg/cm2,[2]; [8],50 to 100%
same,YFM rating,[3]; Yellow Fever Mosquito,A (80–100)
"O=C(Nc1cc(Cl)c(NC(=O)C(F)(F)F)c(Cl)c1)c1cc(NC(=O)[C@H]2[C@H](c3ccc(F)c(Cl)c3)C2(Cl)Cl)ccc1Cl (relative stereo) [F1368, trans-2-Chloro-5-(2,2-dichloro-3-(3-chloro-4-fluorophenyl)cyclopropane-1-carboxamido)-N-(3,5-dichloro-4-(2,2,2-trifluoroacetamido)phenyl)benzamide]",pest or weed control at 50 µg/cm2,[1]; [4],50 to 100%
same,pest or weed control at 50 µg/cm2,[2]; [5],50 to 100%
same,YFM,[3]; [6],A (80–100)
"O=C(Nc1ccc(F)cc1F)c1cc(NC(=O)[C@H]2[C@@H](c3cc(C(F)(F)F)cc(Cl)c3F)C2(Cl)Cl)ccc1Cl (relative stereo) [F1051, cis-2-Chloro-5-(2,2-dichloro-3-(3-chloro-2-fluoro-5-(trifluoromethyl)phenyl)cyclopropane-1-carboxamido)-N-(2,4-difluorophenyl)benzamide]",pest or weed control at 50 µg/cm2,[1]; [4],50 to 100%
same,pest or weed control at 50 µg/cm2,[2]; [5],50 to 100%
same,YFM,[3]; [6],A (80–100)
"O=C(COC(F)F)Nc1c(F)ccc(NC(=O)c2cc(NC(=O)[C@H]3[C@H](c4ccc(F)c(C(F)(F)F)c4)C3(Cl)Cl)ccc2Cl)c1F [F1790, 2-Chloro-5-((1R,3R)-2,2-dichloro-3-(4-fluoro-3-(trifluoromethyl)phenyl)cyclopropane-1-carboxamido)-N-(3-(2-(difluoromethoxy)acetamido)-2,4-difluorophenyl)benzamide]",pest or weed control at 50 µg/cm2,[1]; [7],50 to 100%
same,pest or weed control at 50 µg/cm2,[2]; [8],50 to 100%
same,YFM rating,[3]; Yellow Fever Mosquito,A (80–100)
"CC(=O)Nc1c(F)ccc(NC(=O)c2cc(NC(=O)[C@H]3[C@H](c4cc(Cl)cc(Cl)c4)C3(Cl)Cl)ccc2Cl)c1Cl (relative stereo) [F1160, trans-N-(3-acetamido-2-chloro-4-fluorophenyl)-2-chloro-5-(2,2-dichloro-3-(3,5-dichlorophenyl)cyclopropane-1-carboxamido)benzamide]",pest or weed control at 50 µg/cm2,[1]; [4],50 to 100%
same,pest or weed control at 50 µg/cm2,[2]; [5],50 to 100%
same,YFM,[3]; [6],A (80–100)
"CC(C)(C)OC(=O)Nc1ccc(F)c(NC(=O)c2cc(NC(=O)[C@H]3[C@H](c4cc(Cl)cc(Cl)c4)C3(Cl)Cl)ccc2Cl)c1F (relative stereo) [F1023, trans-tert-Butyl-(3-(2-chloro-5-(2,2-dichloro-3-(3,5-dichlorophenyl)cyclopropane-1-carboxamido)benzamido)-2,4-difluorophenyl)carbamate]",pest or weed control at 50 µg/cm2,[1]; [4],50 to 100%
same,pest or weed control at 50 µg/cm2,[2]; [5],50 to 100%
same,YFM,[3]; [6],A (80–100)
"O=C(Nc1ccc(F)c(NC(=O)C(F)F)c1F)c1cc(NC(=O)[C@H]2[C@H](c3ccc(Cl)cc3)C2(Cl)Cl)ccc1Cl (relative stereo) [F1599, trans-2-Chloro-5-(2,2-dichloro-3-(4-chlorophenyl)cyclopropane-1-carboxamido)-N-(3-(2,2-difluoroacetamido)-2,4-difluorophenyl)benzamide]",pest or weed control at 50 µg/cm2,[1]; [9],50 to 100%
same,pest or weed control at 50 µg/cm2,[2]; [10],50 to 100%
same,YFM,[3]; [11],A (80–100)
"O=C(Nc1cc(NC(=O)C(F)F)c(F)cc1F)c1cc(NC(=O)[C@H]2[C@H](c3ccc(F)c(C(F)(F)F)c3)C2(Cl)Cl)ccc1F [F1558, 5-((1R,3R)-2,2-Dichloro-3-(4-fluoro-3-(trifluoromethyl)phenyl)cyclopropane-1-carboxamido)-N-(5-(2,2-difluoroacetamido)-2,4-difluorophenyl)-2-fluorobenzamide]",pest or weed control at 50 µg/cm2,[1]; [9],50 to 100%
same,pest or weed control at 50 µg/cm2,[2]; [10],50 to 100%
same,YFM,[3]; [11],A (80–100)
"Nc1c(F)ccc(NC(=O)c2cc(NC(=O)[C@H]3[C@H](c4ccc(F)cc4)C3(Cl)Cl)ccc2Cl)c1F (relative stereo) [F1592, trans-N-(3-Amino-2,4-difluorophenyl)-2-chloro-5-(2,2-dichloro-3-(4-fluorophenyl)cyclopropane-1-carboxamido)benzamide]",pest or weed control at 50 µg/cm2,[1]; [9],50 to 100%
same,pest or weed control at 50 µg/cm2,[2]; [10],50 to 100%
same,YFM,[3]; [11],A (80–100)
"Nc1cc(NC(=O)c2cc(NC(=O)[C@H]3[C@H](c4ccc(F)c(Cl)c4)C3(Cl)Cl)ccc2Cl)ccc1Cl (relative stereo) [F1365, trans-N-(3-Amino-4-chlorophenyl)-2-chloro-5-(2,2-dichloro-3-(3-chloro-4-fluorophenyl)cyclopropane-1-carboxamido)benzamide]",pest or weed control at 50 µg/cm2,[1]; [4],50 to 100%
same,pest or weed control at 50 µg/cm2,[2]; [5],50 to 100%
same,YFM,[3]; [6],A (80–100)
"O=C(Nc1ccc(F)cc1F)c1cc(NC(=O)[C@H]2[C@@H](c3ccc(F)c(Cl)c3F)C2(Cl)Cl)ccc1Cl (relative stereo) [F1033, cis-2-Chloro-5-(2,2-dichloro-3-(3-chloro-2,4-difluorophenyl)cyclopropane-1-carboxamido)-N-(2,4-difluorophenyl)benzamide]",pest or weed control at 50 µg/cm2,[1]; [4],50 to 100%
same,pest or weed control at 50 µg/cm2,[2]; [5],50 to 100%
same,YFM,[3]; [6],A (80–100)
